From article PMC5584760, “Rational design of drug-like compounds targeting Mycobacterium marinum MelF protein” (PLoS ONE, 2017)
Converted amounts (≈) assume the structure as drawn. “And” between values parts separate entries of the source, which are not always exact repeats. Identical values can stand only once. Like-named read-outs stand apart in the source and are kept apart here.

Columns and labels:
M. tuberculosis [1] = assay: MIC by resazurin microtiter plate assay (REMA); type: cell-based, M. tuberculosis H37Rv; settings: 96 h, ~5 X 10^6/well, median (range) of three independent experiments; for MIC: Mycobacterium tuberculosis
M. tuberculosis [2] = assay: MBC by CFU assay; type: cell-based, M. tuberculosis H37Rv; settings: for MBC: Mycobacterium tuberculosis; for MBC / MBC, M. tuberculosis: CFU assay, 96 h, median (range) of three independent experiments; for MBC/MIC, M. tuberculosis: ratio, bactericidal when ≤ 4
M. marinum [3] = assay: MIC by resazurin microtiter plate assay (REMA); type: cell-based, M. marinum strain M; settings: 48 h, ~5 X 10^6/well, median (range) of three independent experiments; for MIC: Mycobacterium marinum
M. marinum [4] = assay: MBC by CFU assay; type: cell-based, M. marinum strain M; settings: for MBC: Mycobacterium marinum; for MBC / MBC, M. marinum: CFU assay, 48 h, median (range) of three independent experiments; for MBC/MIC, M. marinum: ratio, bactericidal when ≤ 4
purified MelF = purified MelF (Mycobacterium marinum, UniProt Q5SDQ6); assay: Ki determination by Dixon plots; type: biochemical; settings: for Ki: Dixon plots, substrate 50, 100 and 150 μM; for type of inhibition (Dixon's plot): intersection of Dixon's plots
Method: The enzyme activity was assayed by monitoring a decrease in absorption of NADH (nicotinamide adenine dinucleotide) at 340 nm (ε = 6.22 X 10^3 M^-1cm^-1) in 50 mM Tris-Cl, pH 7.4 at 25°C. The steady state kinetic measurements were performed in a 1-cm path length cuvette in a final volume of 1mL according to the method of Kendrew et al. with slight modifications. 300μM of NADH and 80μM of FAD (flavin adenine dinucleotide) were added and the assay was initiated with the addition of 100 μg (6.09× 10^−10 mole) of enzyme present in WCL/purified MelF. The reaction was followed at 25°C for 5 min. The FAD was kept in the dark to prevent photo-reduction. The specific activity of the enzyme was calculated as Units/mg = ΔA340/min/6.22×mg enzyme/ mL reaction mixture Where ΔA340 represents a change in absorbance of NADH at 340 nm.
Ki values were calculated using Dixon plots, where inverse of Vmax values were plotted against the inhibitor concentration using different substrate concentrations.

M. tuberculosis [5] = assay: Resazurin drugs combination microtiter assay (RIF/INH + inhibitor); type: cell-based, M. tuberculosis H37Rv; settings: for FICI in combination with INH, M. tuberculosis: synergistic inhibitory effect
HeLa cells = assay: MTT cytotoxicity assay; type: cell-based, Human; settings: 20 h
Method: The MTT (3-(4, 5-dimethyl thiazol-2yl)-2, 5-diphenyl tetrazolium bromide) assay was employed to assess the cytotoxicity of the inhibitors. HeLa cells (Human cervical epithelial cells) were plated at a concentration of 1×10^5/well in 100 μL of minimal essential medium (MEM) supplemented with 10% heat-inactivated fetal bovine serum (FBS) in 96-well plates. After overnight incubation at 37°C in 5% CO2 incubator, media was removed and the inhibitors were added in 100 μL of MEM + 10% heat-inactivated FBS at 1X and 5 X MIC concentrations. After incubation for 20 h, the cells were washed thrice with warm MEM (without FBS) and 200 μL of MTT (5mg/mL) was added. The plates were further incubated for 4 h, followed by the addition of 50 μL of DMSO (solubilizing reagent) per well, mixed thoroughly by a micropipette and left for 45 s. Presence of viable cells was visualized by the development of purple color due to formation of formazan crystals. The OD values were read at 595 nm using DMSO as a blank. A standard graph was plotted between the concentration of inhibitors and the relative cell viability.
Cell viability (%) = Test OD /Control ODX 100

M. tuberculosis [6] = assay: MBC of combinations of drugs (RIF/INH) and inhibitors; type: cell-based, M. tuberculosis H37Rv; settings: for bactericidal effect in combination with RIF against M. tuberculosis: compared with RIF alone
M. marinum [7] = assay: Resazurin drugs combination microtiter assay (RIF/INH + inhibitor); type: cell-based, M. marinum strain M; settings: for FICI in combination with INH, M. marinum: synergistic inhibitory effect
[8] = at both 1X and 5X MIC concentrations

Sequence of purified MelF (Q5SDQ6 entry or part of it): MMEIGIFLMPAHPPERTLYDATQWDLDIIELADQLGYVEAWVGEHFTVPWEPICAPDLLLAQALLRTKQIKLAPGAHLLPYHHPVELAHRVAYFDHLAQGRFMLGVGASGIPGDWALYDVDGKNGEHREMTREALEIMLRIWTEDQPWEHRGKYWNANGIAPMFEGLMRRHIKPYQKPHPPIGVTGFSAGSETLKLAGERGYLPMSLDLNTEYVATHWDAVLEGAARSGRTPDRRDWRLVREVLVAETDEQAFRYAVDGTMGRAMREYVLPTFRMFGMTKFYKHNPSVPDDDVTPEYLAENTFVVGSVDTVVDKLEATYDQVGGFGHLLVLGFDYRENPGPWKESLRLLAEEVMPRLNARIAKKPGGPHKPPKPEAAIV

| Compound | MIC (M. tuberculosis [1]) [µM] | MBC (M. tuberculosis [2]) [µM] | MBC/MIC, M. tuberculosis (M. tuberculosis [2]) | MIC (M. marinum [3]) [µM] | MBC (M. marinum [4]) [µM] | MBC/MIC, M. marinum (M. marinum [4]) | Ki (purified MelF; Ki) | type of inhibition (Dixon's plot) (purified MelF) | MIC, M. tuberculosis (M. tuberculosis [1]) | FICI in combination with INH, M. tuberculosis (M. tuberculosis [5]) | MIC, M. marinum (M. marinum [3]) | cytotoxicity in HeLa cells (HeLa cells; [8]) | Ki (purified MelF; read-out: Ki) | MBC, M. tuberculosis (M. tuberculosis [2]) | MBC, M. marinum (M. marinum [4]) | other results |
| --- | --- | --- | --- | --- | --- | --- | --- | --- | --- | --- | --- | --- | --- | --- | --- | --- |
| NNC(=O)c1ccncc1 [INH, Isoniazid, reference compound] | 2.27 (≈ 0.311 µg/mL) | 2.27 (≈ 0.311 µg/mL) | 1 | 4.53 (≈ 0.621 µg/mL) | 4.53 (≈ 0.621 µg/mL) | 1 | – | – | – | – | – | – | – | – | – | – |
| CCC(C)c1ccc(OCCSc2nc3ccccc3[nH]2)cc1 (centres unmarked) [compound 6492687, 2-{[2-(4-sec-butylphenoxy)ethyl]thio}-1H-benzimidazole] | 32.7 to 38.8 (≈ 10.7 to 12.7 µg/mL) | 38.3 (≈ 12.5 µg/mL) | 1 | 9.57 to 19.4 (≈ 3.12 to 6.33 µg/mL) | 38.3 (≈ 12.5 µg/mL) | 4 | 25 µM and 24 µM | competitive inhibition | 38.28 (19.14–38.28) μM | 0.257–0.263 | 9.57 (9.57) μM | cytotoxic | – | – | – | – |
| 2,2'-[3-(3-methoxyphenyl)-1,2-propanediyl]bis-1H-benzimidazole [compound 9125618] | – | – | 1 | – | – | 2 | – | noncompetitive inhibition | 32.68–38.77 μM and 37.61 (18.80–37.61) μM | – | 9.57–19.39 μM and 18.80 (9.40–18.80) μM | – | 24 µM and 25 µM | 37.61 (37.61) μM | 37.61 (37.61) μM | bactericidal effect in combination with RIF against M. tuberculosis (M. tuberculosis [6]): enhanced bactericidal effect; cytotoxicity in HeLa cells (HeLa cells; 5X MIC concentration): ~ 18% |
| c1ccc(CC(Cc2nc3ccccc3[nH]2)c2nc3ccccc3[nH]2)cc1 (centres unmarked) [compound 5255825, 2,2'-(3-phenyl-1,2-propanediyl)bis-1H-benzimidazole] | 32.7 to 38.8 (≈ 11.5 to 13.7 µg/mL) | 35.5 (≈ 12.5 µg/mL) | 1 | 9.57 to 19.4 (≈ 3.37 to 6.83 µg/mL) | 35.5 (≈ 12.5 µg/mL) | 2 | 4 µM | competitive inhibition | 35.47 (17.74–35.47) μM | 0.257–0.263 | 17.74 (8.87–17.74) μM | cytotoxic | – | – | – | FICI in combination with INH, M. marinum (M. marinum [7]): 0.276 |
| CO[C@H]1/C=C/O[C@@]2(C)Oc3c(C)c(O)c4c(O)c(c(/C=N/N5CCN(C)CC5)c(O)c4c3C2=O)NC(=O)/C(C)=C\C=C\[C@H](C)[C@H](O)[C@@H](C)[C@@H](O)[C@@H](C)[C@H](OC(C)=O)[C@@H]1C [RIF, Rifampicin, reference compound] | 0.048 (≈ 0.0395 µg/mL) | 0.095 (≈ 0.0782 µg/mL) | 2 | 0.475 (≈ 0.391 µg/mL) | 0.95 (≈ 0.782 µg/mL) | 2 | – | – | – | – | – | – | – | – | – | – |
| 2-{[(2-methyl-6-phenyl-4-pyrimidinyl)thio]methyl}-1H-benzimidazole [compound 6513745] | – | – | 1 | – | – | 2 | – | noncompetitive inhibition | 32.68–38.77 μM and 38.77 (19.39–38.77) μM | – | – | not cytotoxic | 18 µM | 38.77 (19.39–38.77) μM | 38.77 (19.39–38.77) μM | combined effect with INH against M. marinum (M. marinum [7]; in combination with INH): synergistic inhibitory effect; FICI in combination with INH, M. marinum (M. marinum [7]): 0.276 |
| N~1~,N~1~-diethyl-N~4~-{6-methoxy-2-[2-(4-nitrophenyl)vinyl]-4-quinolinyl}-1,4-pentanediamine [compound 5255829] | – | – | 1 | – | – | 2 | – | competitive inhibition | 32.68–38.77 μM and 32.68 (32.68) μM | – | 9.57–19.39 μM and 16.30 (8.15–16.30) μM | not cytotoxic | 9 µM | 32.68 (32.68) μM | 32.68 (32.68) μM | – |
| CC(C)COc1ccc(-c2nn(-c3ccccc3)cc2CO)cc1 [compound 5175552, [3-(4-isobutoxyphenyl)-1-phenyl-1H-pyrazol-4-yl]methanol] | 13.5 (≈ 4.36 µg/mL) | 27 (≈ 8.71 µg/mL) | 2 | 3.38 (≈ 1.09 µg/mL) | 6.76 (≈ 2.18 µg/mL) | 2 | 68 µM | competitive inhibition | 13.51 (13.51–27.02) μM | 0.257–0.263 | 3.38 (3.38) μM | not cytotoxic | – | 27.02 (13.51–27.02) μM | 6.76 (6.76) μM | combined effect with INH against M. tuberculosis (M. tuberculosis [5]; in combination with INH): synergistic inhibitory effect; MBC/MIC ratio in combination with RIF, M. tuberculosis (M. tuberculosis [6]): 1; bactericidal effect in combination with RIF against M. tuberculosis (M. tuberculosis [6]): enhanced bactericidal effect |
